Laboratory results: patent US20160137610A1, “Compounds that Modulate EGFR Activity and Methods for Treating or Preventing Conditions Therewith” (Gatekeeper Pharmaceuticals, Inc., priority 2010, published 2016)

Legend:
Type in all cases: cell-based
[1] = biological target: Ba/F3 cells EGFR L858R/T790M (Homo sapiens, UniProt P00533, T790M/L858R, cells depend on it); assay: Cell proliferation/growth MTS assay in EGFR mutant Ba/F3 cells; details: 72 hours, read-out: IC50 (nM) in Ba/F3 Cells, EGFR L858R/T790M
Description: (§1) The EGFR and iERBB2 mutant Ba/F3 cells and the NIH-3T3 cells have been previously characterized (Engelman, J. A. et al. Cancer Res 67, 11924-32 (2007); Yuza, Y. et al. Cancer Biol Ther 6 (2007)). The EGFR C797S and the ERBB2 T798I mutations are introduced using site directed mutagenesis using the Quick Change Site-Directed Mutagenesis kit (Stratagene; La Jolla, Calif.) according to the manufacturer's instructions (Mukohara, T. et al. J Natl Cancer Inst 97, 1185-94 (2005)). The oligonucleotide sequences are available upon request. All constructs are confirmed by DNA sequencing. The constructs are shuttled into the retroviral vector JP1540 using the BD Creator™ System (BD Biosciences). Ba/F3 of NIH-3T3 cells are infected with retrovirus according to standard protocols, as described previously (Engelman, J. A. et al. Proc Natl Acad Sci USA 102, 3788-93 (2005); Zhao, J. J. et al. Cancer Cell 3, 483-95 (2003)). Stable populations are obtained by selection in puromycin (2 μg/ml).
(§2) Growth and inhibition of growth is assessed by MTS assay. This assay, a colorimetric method for determining the number of viable cells, is based on the bioreduction of 3-(4,5-dimethylthiazol-2-yl)-5-(3-carboxymethoxyphenyl)-2-(4-sulfophenyl)-2H-tetrazolium (MTS) by cells to a formazan product that is soluble in cell culture medium, can be detected spectrophotometrically and was performed according to previously established methods (Mukohara, T. et al. J Natl Cancer Inst 97, 1185-94 (2005); Paez, J. G. et al. Science 304, 1497 500 (2004); Engelman, J. A. et al. J Clin Invest 116, 2695-2706 (2006). NSCLC or Ba/F3 cells are exposed to treatment for 72 hours and the number of cells used per experiment determined empirically and has been previously established. All experimental points are set up in six to twelve wells and all experiments are repeated at least three times. […] The curves are fitted using a non-linear regression model with a sigmoidal dose response.
(§3) Activity of various compounds of the invention was determined in vitro in EGFR mutant Ba/F3 cells according to the procedures set forth in Example 1.

[2] = biological target: Ba/F3 cells EGFR Del 19/T790M (Homo sapiens, UniProt P00533, DEL746-750/T790M, cells depend on it); assay: as above; details: 72 hours, read-out: IC50 (nM) in Ba/F3 Cells, EGFR Del 19/T790M
Description: as §1, §2, §3

Ba/F3 cells EGFR vIII = Ba/F3 cells EGFR vIII (Homo sapiens, UniProt P00533, DELINS30-297G, cells depend on it); assay: as above; details: 72 hours, read-out: IC50 (nM) in Ba/F3 Cells, EGFR vIII
Description: as §1, §2, §3

A549 (KRAS G12) = assay: Cell proliferation/growth MTS assay in NSCLC cell lines; details: Homo sapiens, 72 hours
PC9 (EGFR Del 19) = assay: as above; details: 72 hours
Description: (§4) The EGFR mutant NSCLC cell lines HCC827 (del E746_A750), H3255 (L858R), HCC827 GR (del E746_A750/MET amplified), H1975 (L858R/T790M) and PC9 (del E746_A750) have been previously characterized (Amann., J. et al. Cancer Res 65, 226-35 (2005); Engelman, J. A. et al. Science 316, 1039-43 (2007); Ono, M. et al. Mol Cancer Ther 3, 465-72 (2004); Ogino, A. et al. Cancer Res 67, 7807-14 (2007)). The PC9 GR (del E746_A750/T790M) cells are generated and verified to contain del E746_A750 in cis with T790M. The ERBB2 amplified (Calu-3 and H1819) and mutant (H1781) are obtained from ATCC. […]
(§5) Growth and inhibition of growth is assessed by MTS assay. This assay, a colorimetric method for determining the number of viable cells, is based on the bioreduction of 3-(4,5-dimethylthiazol-2-yl)-5-(3-carboxymethoxyphenyl)-2-(4-sulfophenyl)-2H-tetrazolium (MTS) by cells to a formazan product that is soluble in cell culture medium, can be detected spectrophotometrically and was performed according to previously established methods (Mukohara, T. et al. J Natl Cancer Inst 97, 1185-94 (2005); Paez, J. G. et al. Science 304, 1497 500 (2004); Engelman, J. A. et al. J Clin Invest 116, 2695-2706 (2006). NSCLC or Ba/F3 cells are exposed to treatment for 72 hours and the number of cells used per experiment determined empirically and has been previously established. […]

[3] = test system: PC9 GR (EGFR Del 19/T790M); assay: as above; details: 72 hours
Description: as §4, §5

Ba/F3 cells EGFR Del 19/T790M, sequence (P00533 with tags, fused parts or gaps DEL746-750/T790M): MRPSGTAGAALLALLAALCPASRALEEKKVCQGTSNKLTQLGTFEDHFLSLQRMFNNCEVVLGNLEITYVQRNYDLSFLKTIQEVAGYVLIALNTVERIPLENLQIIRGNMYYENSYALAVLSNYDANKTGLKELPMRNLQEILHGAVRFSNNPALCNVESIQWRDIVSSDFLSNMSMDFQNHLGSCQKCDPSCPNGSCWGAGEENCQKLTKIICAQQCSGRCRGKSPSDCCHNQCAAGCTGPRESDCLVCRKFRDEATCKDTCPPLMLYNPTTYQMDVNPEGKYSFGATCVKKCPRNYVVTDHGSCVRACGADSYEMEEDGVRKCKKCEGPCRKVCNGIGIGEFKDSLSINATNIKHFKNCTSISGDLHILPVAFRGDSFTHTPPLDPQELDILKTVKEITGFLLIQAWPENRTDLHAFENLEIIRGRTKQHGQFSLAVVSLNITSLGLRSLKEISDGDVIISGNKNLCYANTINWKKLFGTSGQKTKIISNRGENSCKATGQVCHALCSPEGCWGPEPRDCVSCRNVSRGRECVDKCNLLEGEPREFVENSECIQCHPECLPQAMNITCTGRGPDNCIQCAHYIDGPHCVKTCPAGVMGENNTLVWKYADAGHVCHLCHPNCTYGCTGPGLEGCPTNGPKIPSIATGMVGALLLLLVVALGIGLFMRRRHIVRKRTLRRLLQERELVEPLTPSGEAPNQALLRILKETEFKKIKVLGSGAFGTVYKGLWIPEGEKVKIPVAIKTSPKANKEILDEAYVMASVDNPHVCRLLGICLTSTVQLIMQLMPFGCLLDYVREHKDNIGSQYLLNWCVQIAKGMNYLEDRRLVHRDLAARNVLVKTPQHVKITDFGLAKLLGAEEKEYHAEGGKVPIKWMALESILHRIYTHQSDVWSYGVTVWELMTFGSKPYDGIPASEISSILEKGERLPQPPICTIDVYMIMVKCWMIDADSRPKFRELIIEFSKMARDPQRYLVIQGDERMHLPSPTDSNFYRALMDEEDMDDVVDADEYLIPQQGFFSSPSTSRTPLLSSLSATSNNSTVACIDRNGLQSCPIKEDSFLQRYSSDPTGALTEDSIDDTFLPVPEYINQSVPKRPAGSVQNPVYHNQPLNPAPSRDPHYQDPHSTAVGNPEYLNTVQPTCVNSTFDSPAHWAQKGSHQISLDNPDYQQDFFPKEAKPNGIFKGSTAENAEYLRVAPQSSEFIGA
Ba/F3 cells EGFR L858R/T790M, sequence (P00533 whole entry T790M/L858R): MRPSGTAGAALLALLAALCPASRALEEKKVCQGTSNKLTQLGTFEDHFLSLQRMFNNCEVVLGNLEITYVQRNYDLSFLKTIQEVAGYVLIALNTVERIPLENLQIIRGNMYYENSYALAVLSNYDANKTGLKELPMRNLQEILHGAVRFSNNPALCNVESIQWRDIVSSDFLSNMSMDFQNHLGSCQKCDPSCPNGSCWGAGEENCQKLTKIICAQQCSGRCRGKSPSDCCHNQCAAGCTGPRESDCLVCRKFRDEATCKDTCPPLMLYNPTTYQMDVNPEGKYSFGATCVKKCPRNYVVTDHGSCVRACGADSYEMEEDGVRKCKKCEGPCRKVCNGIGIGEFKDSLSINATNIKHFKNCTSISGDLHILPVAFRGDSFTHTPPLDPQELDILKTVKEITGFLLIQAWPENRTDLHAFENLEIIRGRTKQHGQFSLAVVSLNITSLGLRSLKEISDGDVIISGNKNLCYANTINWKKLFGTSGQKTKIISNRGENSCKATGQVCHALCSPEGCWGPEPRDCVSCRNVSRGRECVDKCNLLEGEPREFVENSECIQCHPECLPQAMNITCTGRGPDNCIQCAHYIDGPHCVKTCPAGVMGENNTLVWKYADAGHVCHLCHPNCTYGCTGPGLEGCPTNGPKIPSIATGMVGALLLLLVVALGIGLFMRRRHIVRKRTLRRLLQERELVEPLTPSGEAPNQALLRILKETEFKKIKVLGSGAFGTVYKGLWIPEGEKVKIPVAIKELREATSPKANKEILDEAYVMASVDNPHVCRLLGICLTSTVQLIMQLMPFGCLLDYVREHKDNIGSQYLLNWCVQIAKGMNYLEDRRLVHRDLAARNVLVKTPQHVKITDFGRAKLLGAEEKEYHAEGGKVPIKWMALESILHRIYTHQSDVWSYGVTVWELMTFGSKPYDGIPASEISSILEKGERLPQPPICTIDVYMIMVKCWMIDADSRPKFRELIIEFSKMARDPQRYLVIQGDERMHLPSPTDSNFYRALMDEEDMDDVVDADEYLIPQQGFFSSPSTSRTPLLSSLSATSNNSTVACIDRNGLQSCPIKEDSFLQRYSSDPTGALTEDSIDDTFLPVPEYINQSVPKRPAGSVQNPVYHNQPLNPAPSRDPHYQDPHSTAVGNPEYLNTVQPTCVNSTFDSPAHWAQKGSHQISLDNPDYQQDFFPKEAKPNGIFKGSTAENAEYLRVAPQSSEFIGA
Ba/F3 cells EGFR vIII, sequence (P00533 with tags, fused parts or gaps DELINS30-297G): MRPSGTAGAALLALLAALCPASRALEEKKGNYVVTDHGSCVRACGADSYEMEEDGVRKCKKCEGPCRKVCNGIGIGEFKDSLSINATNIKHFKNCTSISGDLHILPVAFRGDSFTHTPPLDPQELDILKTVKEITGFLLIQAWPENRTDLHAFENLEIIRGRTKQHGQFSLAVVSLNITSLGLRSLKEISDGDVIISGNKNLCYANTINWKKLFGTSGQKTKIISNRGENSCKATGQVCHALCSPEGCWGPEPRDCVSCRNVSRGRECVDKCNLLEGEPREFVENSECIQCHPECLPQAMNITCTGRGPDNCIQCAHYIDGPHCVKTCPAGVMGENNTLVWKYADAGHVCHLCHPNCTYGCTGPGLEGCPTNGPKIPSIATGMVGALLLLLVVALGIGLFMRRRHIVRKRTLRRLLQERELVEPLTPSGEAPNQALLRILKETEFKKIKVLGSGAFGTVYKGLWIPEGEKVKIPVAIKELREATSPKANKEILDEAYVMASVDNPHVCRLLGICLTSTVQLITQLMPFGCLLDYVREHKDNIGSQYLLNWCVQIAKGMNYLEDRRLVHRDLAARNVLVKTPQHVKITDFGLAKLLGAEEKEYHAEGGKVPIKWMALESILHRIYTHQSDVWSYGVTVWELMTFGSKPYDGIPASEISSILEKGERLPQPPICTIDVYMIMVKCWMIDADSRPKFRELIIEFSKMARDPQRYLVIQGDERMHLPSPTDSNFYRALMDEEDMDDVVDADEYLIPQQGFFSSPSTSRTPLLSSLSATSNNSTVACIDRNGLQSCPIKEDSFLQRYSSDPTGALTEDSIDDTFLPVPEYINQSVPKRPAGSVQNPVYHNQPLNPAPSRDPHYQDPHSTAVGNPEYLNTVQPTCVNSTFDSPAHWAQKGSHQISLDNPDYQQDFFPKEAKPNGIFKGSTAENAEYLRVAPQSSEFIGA

Row | Compound | GI50 [1] [nM] | GI50 [2] [nM] | GI50 (Ba/F3 cells EGFR vIII) [nM] | IC50 (A549 (KRAS G12)) [nM] | IC50 (PC9 (EGFR Del 19)) [nM] | IC50 [3] [nM]
1 | C=CC(=O)Nc1cccc(CNc2ncc(Cl)c(Nc3ccccc3S(=O)(=O)C(C)C)n2)c1 [Compound XIII-3, N-(3-(((5-chloro-4-((2-(isopropylsulfonyl)phenyl)amino)pyrimidin-2-yl)amino)methyl)phenyl)acrylamide] | 721 | 670 |  |  |  | 
2 | C=CC(=O)Nc1cccc(Nc2ncc(Cl)c(Nc3ccccc3C(=O)NC)n2)c1 [Compound XIII-1, 2-((2-((3-acrylamidophenyl)amino)-5-chloropyrimidin-4-yl)amino)-N-methylbenzamide] | 6 | 3 | 3 | 814 |  | 
3 | C=CC(=O)Nc1ccc(OC)c(Nc2ncc(Cl)c(Nc3ccccc3C(=O)NC)n2)c1 [Compound XIII-2, 2-((2-((5-acrylamido-2-methoxyphenyl)amino)-5-chloropyrimidin-4-yl)amino)-N-methylbenzamide] | 65 | 56 | 570 | > 3300 | 118 | 104

The next lines start with the values.

Row | GI50 [1] [nM] | GI50 [2] [nM] | GI50 (Ba/F3 cells EGFR vIII) [nM] | IC50 (A549 (KRAS G12)) [nM] | IC50 (PC9 (EGFR Del 19)) [nM] | IC50 [3] [nM] | Compound
4 | 17 | 7 |  |  |  |  | C=CC(=O)Nc1cccc(Nc2ncc(Cl)c(Nc3ccccc3S(=O)(=O)C(C)C)n2)c1 [Compound XIII-4, N-(3-((5-chloro-4-((2-(isopropylsulfonyl)phenyl)amino)pyrimidin-2-yl)amino)phenyl)acrylamide]
5 | 9 | 11 |  |  |  |  | C=CC(=O)Nc1cccc(Nc2ncc(Cl)c(Nc3ccccc3S(=O)(=O)NC)n2)c1 [Compound XIII-5, N-(3-((5-chloro-4-((2-(N-methylsulfamoyl)phenyl)amino)pyrimidin-2-yl)amino)phenyl)acrylamide]
